Reference: US20120136033A1, “Small Molecule Antagonists of Phosphatidylinositol-3,4,5-Triphosphate (PIP3) and Uses Thereof” (President and Fellows of Harvard College, priority 2009, published 2012)

Experiments:
[1] = test system: HUVEC; assay: HUVEC migration, wound healing and transwell assays; type: cell-based, human
Protocol: (§1) Two models of cell migration were used, a transwell migration model and a wound closure model. Migration of cancer and endothelial cells was evaluated using 24-transwell Boyden chamber (Costar, Bedford, Mass.) with a polystyrene membrane (6.5 mm diameter, 10 μm thickness, and 8 μm pore size). Cells were suspended in serum-free media and seeded in the upper compartment of each well (2×10^4 cells/well) in the presence or absence of different compounds at the indicated concentrations. The lower compartment contained 600 μl of serum-free culture media supplemented with growth factors. After an 8-hr incubation at 37° C., cells were fixed and stained with 0.1% crystal violet. Non-migrating cells on the upper surface of the filter were removed, and the stained cells that migrated to the lower side were photographed using a phase-contrast microscope (Nikon, Japan) in five random fields. The cells were lysed with 10% acetic acid, and colorimetric determination was made at 595 nm using Wallac Victor 3 plate reader.
Cancer or endothelial cells were seeded into fibronectin-coated 96-well plates (2×10^4 cells/well). […]
Second, HUVEC were serum starved and treated with PITs (25, 50 100 μM) or PIT-1is (100 μM) for 8 hr, followed by bFGF (10 ng/ml) stimulation for 15 min. […] The number of cell ruffles/lamellipodia was counted in five random fields.

[2] = biological target: T1, Akt PH domain (Homo sapiens, UniProt P31749); assay: PH domain translocation assay, GFP-fused Akt PH domain; type: cell-based; settings: 100 μM, 2 hr, PDGF stimulation
T1 construct: Akt PH domain-GFP, VAV2-GFP and VAV3-GFP vectors were generous gifts of Dr. Joanne Brugge; expressed in transfected cells
T1 sequence (P31749 5-108 limits assumed): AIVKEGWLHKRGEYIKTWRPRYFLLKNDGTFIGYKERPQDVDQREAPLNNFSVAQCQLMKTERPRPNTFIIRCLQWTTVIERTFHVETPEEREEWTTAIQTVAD
Protocol: Cells were transfected with the corresponding GFP-fusion vectors, serum starved overnight, and incubated with 100 μM PITs or PIT-1is for 2 hr, followed by stimulation with 100 ng/ml PDGF or 250 ng/ml PMA for 5 min. The translocation was analyzed using fluorescent microscope and was quantitated by counting the number of cells with translocated PH domains in five random fields.
(§2) To begin characterizing cellular activity of PITs, a PH domain translocation assay was performed, measuring PIP3-induced association of GFP-fused PH domains with the plasma membrane. This method provides useful means for monitoring status of the PH domain/PIP3 binding in the intact cells. Varnai P et al. (1999) J Biol Chem 274:10983-9. Several PH-domain-containing proteins, which are known to bind PIP3 specifically and efficiently, were examined. […] Oikawa T et al. (2004) Nat Cell Biol 6:420-6.

[3] = test system: SUM159 cells; assay: cell polarization in wounded SUM159 monolayers; type: cell-based, human; settings: 100 μM, 2 hr
Protocol: In order to measure cell polarization, wounds were generated in SUM159 cell monolayers, followed by serum starvation and treatment with 100 μM PIT-1, PIT-2, PIT-1i-1, or PIT-1i-2 for 2 hr. Cells were stimulated for 15 min with 100 ng/ml PDGF, fixed and stained with TRITC-phalloidin for F-actin (red), acetylated tubulin antibody (green) for microtubule organization center (MTOC), and Hoechst for nuclei (blue). Cell polarization was evaluated by analysis of the relative location of the MTOC and nucleus. […] The number of polarized cells was counted in five random fields under fluorescent microscope.

[4] = test system: SUM159 cells; assay: actin polymerization and ruffling/lamellipodia formation in SUM159 cells; type: cell-based, human; settings: 25, 50, 100 μM PITs or 100 μM PIT-1is, 8 hr; PDGF 15 min
Protocol: In one set of experiments, the ability of PITs to inhibit actin polymerization and ruffling/lamellipodia formation was examined in SUM159 cells. Cells were serum starved and treated with PITs (25, 50 100 μM) or PIT-1is (100 μM) for 8 hr, followed by PDGF (100 ng/ml) stimulation for 15 min. Cells were fixed and stained with TRITC-phalloidin to visualize actin fibers, followed by fluorescent microscopy analysis. The number of cells with ruffles/lamellipodia was counted in five random fields.

[5] = test system: human cancer cells; assay: transwell (Boyden chamber) migration of cancer cells; type: cell-based; settings: for inhibition of cancer cell migration: transwell / wound healing models
Protocol: as §1

[6] = test system: PI3K-PDK1-Akt pathway; assay: PI3K-PDK1-Akt pathway phosphorylation events in U87MG cells; type: cell-based, human
Protocol: The effect of PIT-1 on PIP3-mediated signaling was examined in U87MG glioblastoma cells, which show elevated basal levels of PIP3 due to the loss of PTEN. Pore N et al. (2003) Cancer Res 63:236-41.

[7] = test system: SUM159 cells transfected with VAV2 or WAVE2; assay: wound healing migration of VAV- or WAVE-overexpressing SUM159 cells; type: cell-based, human; settings: 100 μM, PDGF, 8 hr
Protocol: SUM159 cells were transfected with VAV2 or WAVE2. Scratch wound was generated in cell monolayer, followed by treatment with PIT-1 (100 μM) in the presence of PDGF (100 ng/ml) stimulation for 8 hr. The inhibitory effect of PITs on VAV- or WAVE-induced cell migration was calculated according to the width of wound. The width of wounded cell monolayers was measured in five random fields.

[8] = test system: HUVEC; assay: endothelial tube formation assay on Matrigel; type: cell-based, human
Protocol: The tube formation assay was performed in 96-well plates. Wells were pre-coated with 70 μl of the Matrigel basement membrane matrix (BD Biosciences) per well for 1 hr at 37° C. HUVEC were suspended in serum-free M199 medium and plated on Matrigel at a density of 2×10^4 cells per well. PIT-1 was added at indicated concentrations (3.125-100 μM). After an 8 hr incubation at 37° C., phase-contrast images of the endothelial tubes were obtained using a Nikon TE2000 microscope, and tube formation was assessed by counting the number of closed tubes in five random fields from each well.

[9] = biological target: T2, WAVE2 (Homo sapiens, UniProt Q9Y6W5); assay: plasma membrane translocation assay, WAVE2-GFP; type: cell-based
T2 construct: expressed in transfected cells; host or cells: SUM159
T2 sequence (Q9Y6W5 whole entry, species assumed): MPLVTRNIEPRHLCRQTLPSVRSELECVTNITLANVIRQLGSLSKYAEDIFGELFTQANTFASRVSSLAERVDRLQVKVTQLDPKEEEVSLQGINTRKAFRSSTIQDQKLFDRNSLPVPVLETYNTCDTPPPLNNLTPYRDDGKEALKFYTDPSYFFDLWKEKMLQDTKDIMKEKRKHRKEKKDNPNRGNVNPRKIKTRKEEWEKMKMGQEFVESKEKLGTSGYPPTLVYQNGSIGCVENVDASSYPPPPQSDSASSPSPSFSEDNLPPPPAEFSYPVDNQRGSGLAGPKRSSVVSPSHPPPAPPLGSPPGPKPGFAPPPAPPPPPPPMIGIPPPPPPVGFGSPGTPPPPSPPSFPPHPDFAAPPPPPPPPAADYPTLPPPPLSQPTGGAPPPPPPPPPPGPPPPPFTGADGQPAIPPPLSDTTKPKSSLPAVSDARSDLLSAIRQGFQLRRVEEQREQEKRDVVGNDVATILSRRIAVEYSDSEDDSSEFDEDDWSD
Protocol: as §2

Row | SMILES | migration of HUVEC cells [1] | inhibition of translocation of Akt PH domain to the plasma membrane [2] | cell polarization and lamellipodia formation induced by PDGF, wound healing model [3] | PDGF-induced membrane ruffling in SUM159 cells [4] | inhibition of cancer cell migration [5] | activity of the PI3K-PDK1-Akt pathway in U87MG cells [6] | inhibition of cell migration in VAV- and WAVE-overexpressing cells compared to control cells [7] | inhibition of tube formation [8] | plasma membrane translocation of WAVE2 [9] | growth factor-induced transwell migration of human cancer cells ([5]; 8 hr) | IC50 ([8]; Homo sapiens, HUVEC on Matrigel, 8 hr, 3.125-100 μM, read-out: IC50, inhibition of tube formation) [µM]
1 | O=C1NC(=S)S/C1=C\c1cc(O)c([N+](=O)[O-])cc1Cc1ccccc1 [PIT-2] | efficiently blocked migration | significantly inhibited | effective at preventing cell polarization | efficiently inhibited | efficiently inhibited cell migration | suppressed activity | larger degree of inhibition | also observed | suppressed the plasma membrane translocation |  | 
2 | O=C(NC(=S)Nc1cc([N+](=O)[O-])cc(Cl)c1O)c1ccccc1 [PIT-1] | efficiently blocked migration | significantly inhibited | effective at preventing cell polarization | efficiently inhibited | much stronger than that of Akt kinase inhibitor VIII | suppressed activity | larger degree of inhibition |  | suppressed the plasma membrane translocation | substantially inhibited | 7.75
